Results on two molecules are retold here after patent US20110136193A1, “METHOD FOR PRODUCING BUTANOL USING EXTRACTIVE FERMENTATION WITH OSMOLYTE ADDITION” (BUTAMAX(TM) ADVANCED BIOFUELS LLC, priority 2009, published 2011).

Data set [1] can be described thus: Kp of isobutanol in an oleyl alcohol/aqueous system (general statement). The following applies: no added osmolyte. It counts as physicochemical. From the text: Addition of organic extractants like oleyl alcohol into the fermentor during the production stage extracts butanol from the aqueous phase which alleviates its inhibitory effect on the microorganism resulting in higher rate and titer of isobutanol fermentation. Fermentation rate in this two phase system also slows down once the aqueous phase concentration of isobutanol reaches an inhibitory threshold level. In the presence of the extractant (oleyl alcohol) in the fermentor, the aqueous concentration of isobutanol is dictated by the partitioning coefficient (Kp) of isobutanol between the two phases. In the case of an oleyl alcohol/aqueous system, Kp is in the range of 3.5-4.5. A significant increase in isobutanol rate and titer can be achieved if Kp for isobutanol can be increased during fermentation such that the aqueous concentration of isobutanol drops below the inhibitory threshold level.

Data set [2] is described as follows: Partition coefficient (Kp) of isobutanol between oleyl alcohol extractant and sucrose-supplemented basal fermentation medium. It counts as physicochemical. The following applies: oleyl alcohol / BFM, 30° C. How it is done:
The purpose of this Example was to evaluate the effect of sucrose concentrations in the fermentation medium on the partition coefficient (Kp) of isobutanol when oleyl alcohol was used as the extractant. The basal fermentation medium (BFM) typically used in E. coli fermentations was used as the fermentation medium in this Example.
The following experimental procedure was used to generate the data in Table 3. In these Kp measurement experiments, a specified amount of sucrose was added as an osmolyte to the basal fermentation medium. To 30 mL of the sucrose-supplemented BFM, 10 mL of isobutanol rich oleyl alcohol (OA) extractant containing 168 g/L of isobutanol was added and mixed vigorously for 4 and 8 hours at 30° C. with shaking at 250 rpm in a table top shaker (Innova 4230, New Brunswick scientific, Edison, N.J.) to reach equilibrium between the two phases. The aqueous and organic phases in each flask were separated by decantation. The aqueous phase was centrifuged (2 minutes on 13,000 rpm with an Eppendorf centrifuge model 5415R) to remove residual extractant phase and the supernatant analyzed for glucose and isobutanol by HPLC.
Partition coefficients (Kp) for isobutanol distribution between the organic and aqueous phases were calculated from the known amount of isobutanol added to the flask and the isobutanol concentration data measured in the aqueous phase. The concentration of isobutanol in the extractant phase was determined by mass balance. The partition coefficient was determined as the ratio of isobutanol concentration in the organic and the aqueous phase, i.e., Kp=[Isobutanol]Organic phase/[isobutanol]Aqueous phase. Each data point corresponding to a specified level of sucrose as shown in Table 3 was repeated twice and values for Kp reported as the average of the two flasks.

Data set [3] in a line: Activity of the enzyme expressed from the sadB gene in cell-free extracts. It counts as biochemical. Conditions: cell-free extracts of E. coli Mach1/pTrc99a::sadB; isobutyraldehyde as the standard. How it is done:
The sadB coding region was then cloned into the vector pTrc99a (Amann et al., Gene 69: 301-315, 1988). The pCR4Blunt::sadB was digested with EcoRI, releasing the sadB fragment, which was ligated with EcoRI-digested pTrc99a to generate pTrc99a::sadB. This plasmid was transformed into E. coli Mach 1 cells and the resulting transformant was named Mach1/pTrc99a::sadB. The activity of the enzyme expressed from the sadB gene in these cells was determined to be 3.5 mmol/min/mg protein in cell-free extracts when analyzed using isobutyraldehyde as the standard.

Consider `CC(C)CO` [isobutanol], for which the “partitioning coefficient (Kp) of isobutanol between the two phases” value in data set [1] was 3.5-4.5. The Kp in data set [2] (sucrose added 0 moles/L, total sugars 0.17 moles/L) worked out at 4.35; in data set [2] (sucrose added 0.03 moles/L, total sugars 0.20 moles/L), 4.44; in data set [2] (sucrose added 0.09 moles/L, total sugars 0.26 moles/L), 4.41; in data set [2] (sucrose added 0.17 moles/L, total sugars 0.34 moles/L), 4.60; in data set [2] (sucrose added 0.26 moles/L, total sugars 0.43 moles/L) it was 4.69; in data set [2] (sucrose added 0.33 moles/L, total sugars 0.50 moles/L), 5.09. For the same molecule, the Kp was 5.21 in data set [2] (sucrose added 0.51 moles/L, total sugars 0.68 moles/L); 5.85 in data set [2] (sucrose added 0.67 moles/L, total sugars 0.84 moles/L); 6.85 in data set [2] (sucrose added 1.00 moles/L, total sugars 1.17 moles/L); 7.77 in data set [2] (sucrose added 1.33 moles/L, total sugars 1.50 moles/L); 10.69 in data set [2] (sucrose added 2.00 moles/L, total sugars 2.17 moles/L).

B1: sadB: butanol dehydrogenase from Achromobacter xylosoxidans (protein SEQ ID NO: 10), expressed in E. coli Mach 1 cells (protein)
chain: MKALVYHGDHKISLEDKPKPTLQKPTDVVVRVLKTTICGTDLGIYKGKNPEVADGRILGHEGVGVIEEVGESVTQFKKGDKVLISCVTSCGSCDYCKKQLYSHCRDGGWILGYMIDGVQAEYVRIPHADNSLYKIPQTIDDEIAVLLSDILPTGHEIGVQYGNVQPGDAVAIVGAGPVGMSVLLTAQFYSPSTIIVIDMDENRLQLAKELGATHTINSGTENVVEAVHRIAAEGVDVAIEAVGIPATWDICQEIVKPGAHIANVGVHGVKVDFEIQKLWIKNLTITTGLVNTNTTPMLMKVASTDKLPLKKMITHRFELAEIEHAYQVFLNGAKEKAMKIILSNAGAA
modifications: Achromobacter xyloxidans
With B1, the “activity of the enzyme expressed from the sadB gene” value in data set [3] worked out at 3.5 mmol/min/mg protein.
